Several values for one entry are separate records, joined by “and”; a condition that tells them apart may be missing. Identical values can stand only once. Inconclusive results and toxic doses are left out. Cut-off read from the data, not from the text of the source: active = T/C of 150% or more; inactive = T/C below 125%.
Test system: L1210 leukemia ip in BDF1 mice, survival T/C
Experiment: NCI In Vivo Anticancer Drug Screen. Data for tumor model L1210 Leukemia (intraperitoneal) in B6D2F1 (BDF1) mice
Conditions: endpoint: mean survival time, higher = longer survival
In short: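 Survival endpoint. Drug-treated group vs vehicle group, expressed as T divided by C. Tumor passaged by transplantation.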

[1] = dose: 100.0 mg/kg/injection, schedule: Q01DX009 (ip), vehicle: Klucel (hydroxypropylcellulose) (HPC)
[2] = dose: 100.0 mg/kg/injection, schedule: Q04DX003 (ip), vehicle: Klucel (hydroxypropylcellulose) (HPC)
[3] = dose: 200.0 mg/kg/injection, schedule: Q04DX003 (ip), vehicle: Klucel (hydroxypropylcellulose) (HPC)
[4] = dose: 400.0 mg/kg/injection, schedule: Q01DX009 (ip), vehicle: Klucel (hydroxypropylcellulose) (HPC)
[5] = dose: 400.0 mg/kg/injection, schedule: Q04DX003 (ip), vehicle: Klucel (hydroxypropylcellulose) (HPC)
[6] = dose: 100.0 mg/kg/injection, schedule: Q01DX001 (ip), vehicle: saline
[7] = dose: 200.0 mg/kg/injection, schedule: Q01DX001 (ip), vehicle: saline
[8] = dose: 400.0 mg/kg/injection, schedule: Q01DX001 (ip), vehicle: saline
[9] = dose: 100.0 mg/kg/injection, schedule: Q04DX002 (ip), vehicle: saline with Tween-80
[10] = dose: 200.0 mg/kg/injection, schedule: Q04DX002 (ip), vehicle: saline with Tween-80
[11] = dose: 400.0 mg/kg/injection, schedule: Q04DX002 (ip), vehicle: saline with Tween-80
[12] = dose: 100.0 mg/kg/injection, schedule: Q01DX009 (ip), vehicle: saline
[13] = dose: 200.0 mg/kg/injection, schedule: Q01DX009 (ip), vehicle: saline

Measured: T/C

Cc1ccc(C(=O)CN(Cc2ccccc2)Cc2ccccc2)cc1
inactive: [1] 103 % of control | [2] 98 % of control | dose: 200.0 mg/kg/injection, schedule: Q01DX009 (ip), vehicle: Klucel (hydroxypropylcellulose) (HPC) 97 % of control | [3] 92 % of control | [4] 92 % of control | [5] 91 % of control

CC(C)(C)SCC(NC(=O)OCc1ccccc1)C(=O)O (stereo unspecified)
inactive: dose: 50.0 mg/kg/injection, schedule: Q01DX009 (ip), vehicle: Klucel (hydroxypropylcellulose) (HPC) 100 % of control | dose: 75.0 mg/kg/injection, schedule: Q01DX001 (ip), vehicle: Klucel (hydroxypropylcellulose) (HPC) 91 % of control | [1] 89 % of control | dose: 150.0 mg/kg/injection, schedule: Q01DX001 (ip), vehicle: Klucel (hydroxypropylcellulose) (HPC) 94 % of control | dose: 300.0 mg/kg/injection, schedule: Q01DX001 (ip), vehicle: Klucel (hydroxypropylcellulose) (HPC) 94 % of control

O=C1C(=O)C(C(=O)c2ccccc2)C(=O)C1C(=O)c1ccccc1 (stereo unspecified)
inactive: dose: 55.0 mg/kg/injection, schedule: Q01DX Z (ip), vehicle: saline 109 % of control | dose: 83.0 mg/kg/injection, schedule: Q01DX Z (ip), vehicle: saline 100 % of control | dose: 125.0 mg/kg/injection, schedule: Q01DX Z (ip), vehicle: saline 93 % of control

Cc1ccc(C)c(NC(=O)Oc2ccc3ccccc3c2)c1
inactive: [1] 93 % of control | [2] 107 % of control | [3] 107 % of control | [4] 91 % of control | [5] 97 % of control

O=c1[nH]nnc2c1cnn2C1OC(CO)C(O)C1O (stereo unspecified)
inactive: [6] 100 % of control | [7] 106 % of control | [8] 97 % of control

COc1ccc2c(c1)N(CCCN(C)C)c1ccccc1S2
inactive: dose: 4.68 mg/kg/injection, schedule: Q01DX009 (ip), vehicle: saline 118 % of control | dose: 9.37 mg/kg/injection, schedule: Q01DX009 (ip), vehicle: saline 115 % of control | dose: 18.75 mg/kg/injection, schedule: Q01DX009 (ip), vehicle: saline 115 % of control | dose: 18.75 mg/kg/injection, schedule: Q04DX003 (ip), vehicle: saline 104 % of control | dose: 37.5 mg/kg/injection, schedule: Q01DX009 (ip), vehicle: saline 118 % of control | dose: 37.5 mg/kg/injection, schedule: Q04DX003 (ip), vehicle: saline 114 % of control | dose: 75.0 mg/kg/injection, schedule: Q01DX009 (ip), vehicle: saline 95 % of control | dose: 75.0 mg/kg/injection, schedule: Q04DX003 (ip), vehicle: saline 121 % of control

CCOC(=O)CCN(C)CCC(=O)OCC
inactive: dose: 12.5 mg/kg/injection, schedule: Q01DX009 (ip), vehicle: water 101 % of control | dose: 25.0 mg/kg/injection, schedule: Q01DX009 (ip), vehicle: water 103 % of control | dose: 25.0 mg/kg/injection, schedule: Q04DX003 (ip), vehicle: water 101 % of control | dose: 50.0 mg/kg/injection, schedule: Q01DX009 (ip), vehicle: water 105 % of control | dose: 50.0 mg/kg/injection, schedule: Q04DX003 (ip), vehicle: water 101 % of control | dose: 100.0 mg/kg/injection, schedule: Q04DX003 (ip), vehicle: water 101 % of control

N#CC1(Nc2ccc3c4c(cccc24)CC3)CCCCC1
inactive: [9] 95 % of control | [10] 109 % of control | [11] 95 % of control

CC(=O)[O][Hg][c]1cc2c(cc1O)Cc1cc([N+](=O)[O-])ccc1-2
inactive: dose: 12.5 mg/kg/injection, schedule: Q01DX001 (ip), vehicle: carboxymethylcellulose (CMC) 105 % of control | dose: 25.0 mg/kg/injection, schedule: Q01DX001 (ip), vehicle: carboxymethylcellulose (CMC) 100 % of control | dose: 50.0 mg/kg/injection, schedule: Q01DX001 (ip), vehicle: carboxymethylcellulose (CMC) 97 % of control

CC(=O)OC1C=COC(C)C1OC(C)=O (stereo unspecified)
inactive: dose: 50.0 mg/kg/injection, schedule: Q01DX001 (ip), vehicle: saline 105 % of control | [6] 97 % of control | [12] 109 % of control | dose: 100.0 mg/kg/injection, schedule: Q04DX003 (ip), vehicle: saline 102 % of control | [7] 100 % of control | [13] 93 % of control | dose: 200.0 mg/kg/injection, schedule: Q04DX003 (ip), vehicle: saline 91 % of control | [8] 105 % of control | dose: 400.0 mg/kg/injection, schedule: Q01DX009 (ip), vehicle: saline 102 % of control | dose: 400.0 mg/kg/injection, schedule: Q04DX003 (ip), vehicle: saline 96 % of control

CCCCP(=O)(CC(=O)O)c1ccccc1 (stereo unspecified)
inactive: [9] 97 % of control | [10] 100 % of control | [11] 90 % of control

CC(=O)C(C=NCCN=CC(C(C)=O)C(C)=O)C(C)=O.[Ni]
inactive: [9] 98 % of control | [10] 98 % of control

COc1ccc(C(=O)NC(=S)Nc2ccc(CCO)cc2)cc1
inactive: dose: 100.0 mg/kg/injection, schedule: Q01DX009 (ip), vehicle: saline with Tween-80 98 % of control and 101 % of control | [9] 98 % of control | dose: 100.0 mg/kg/injection, schedule: Q04DX003 (ip), vehicle: saline with Tween-80 96 % of control | dose: 200.0 mg/kg/injection, schedule: Q01DX009 (ip), vehicle: saline with Tween-80 101 % of control and 102 % of control | [10] 100 % of control | dose: 200.0 mg/kg/injection, schedule: Q04DX003 (ip), vehicle: saline with Tween-80 94 % of control | dose: 400.0 mg/kg/injection, schedule: Q01DX009 (ip), vehicle: saline with Tween-80 94 % of control and 104 % of control | [11] 98 % of control | dose: 400.0 mg/kg/injection, schedule: Q04DX003 (ip), vehicle: saline with Tween-80 92 % of control

N#CC1(Cc2ccc(Br)cc2)c2cc(OC(=O)c3ccccc3)ccc2C=CN1C(=O)c1ccccc1 (stereo unspecified)
inactive: [2] 96 % of control | [3] 99 % of control | [5] 99 % of control

COc1ccc(C(=O)NCCBr)cc1[N+](=O)[O-]
inactive: [6] 108 % of control | [2] 97 % of control | [7] 103 % of control | [3] 101 % of control | [8] 98 % of control | [5] 111 % of control

CCC(C)C(CN)(CCN1CCCCC1)Cc1cccc2ccccc12 (stereo unspecified)
inactive: dose: 12.5 mg/kg/injection, schedule: Q04DX003 (ip), vehicle: saline + alcohol 96 % of control | dose: 25.0 mg/kg/injection, schedule: Q04DX003 (ip), vehicle: saline + alcohol 93 % of control | dose: 50.0 mg/kg/injection, schedule: Q04DX003 (ip), vehicle: saline + alcohol 96 % of control

Cc1ccccc1NC(=O)NO
inactive: dose: 100.0 mg/kg/injection, schedule: Q01DX001 (ip), vehicle: carboxymethylcellulose (CMC) 103 % of control | dose: 200.0 mg/kg/injection, schedule: Q01DX001 (ip), vehicle: carboxymethylcellulose (CMC) 100 % of control | dose: 400.0 mg/kg/injection, schedule: Q01DX001 (ip), vehicle: carboxymethylcellulose (CMC) 105 % of control

O=C(CBr)Nc1ccc(C(=O)O)c(O)c1
inactive: dose: 12.5 mg/kg/injection, schedule: Q04DX003 (ip), vehicle: Klucel (hydroxypropylcellulose) (HPC) 103 % of control | dose: 25.0 mg/kg/injection, schedule: Q04DX003 (ip), vehicle: Klucel (hydroxypropylcellulose) (HPC) 92 % of control | dose: 50.0 mg/kg/injection, schedule: Q04DX003 (ip), vehicle: Klucel (hydroxypropylcellulose) (HPC) 92 % of control

c1ccc2cnccc2c1
inactive: [12] 100 % of control | [13] 110 % of control

Source: PubChem BioAssay AID248 (DTP/NCI, 2004)
